One data set relates to C57BL6 mice. Briefly: Mouse hypoxia model of pulmonary vascular remodeling and hypertension. Type of data set: in vivo. The text has this: Hypoxia in vivo: C57BL6 mice (male, 8˜10 weeks old) were purchased from Taconic Farms Inc. (Hudson, N.Y.). All the animals were housed in a pathogen-free environment, under standard light and dark cycles, with free access to food and water until they were used for the experiments. All experiments involving animals were reviewed and approved by Institutional Animal Care and Use Committee of The Feinstein Institute for Medical Research. An animal hypoxia chamber system (BioSpherix, Lacona, N.Y.) was used for the in vivo studies. […] Mice were randomly divided into 4 groups and treated with normoxia, or hypoxia for 3, 10, or 42 days. At the time of euthanasia, animals were anesthetized with isoflurane and 100% oxygen. A 26 gauge needle connected to a transducer was introduced into the right ventricular trans-diaphragmatically. The right ventricular (RV) pressure was measured and recorded using a computerized hemodynamic recording system (HAEMODYN, Harvard Apparatus, Mass.). After the RV pressure measurement, blood was taken from the RV and plasma was stored in −80° C. for MIF measurement. The mice were then euthanized by exsanguination. The hearts were removed, dissected and weighed. The heart weights were expressed as a ratio of the weight of the right ventricle to the weight of the left ventricle+septum (RV/S+LV). The lung was also collected; the left side was used for measure MIF mRNA expression, and the right side fixed, at inflation, in 4% paraformaldehyde for lung vascular histology study. […] Immediately after sub-cutaneous pump implantation on the dorsum of the animals, the mice were put into hypoxia chamber undergoing 10% normobaric hypoxia for 10 days or 21 days. At the indicated times, the RV pressure, heart weight (RV/S+LV), and vascular changes were determined in each group using the methods described above. Vascular wall thickness: Lung tissues were immunostained using anti α-smooth muscle actin (α-SMA) antibody (Abcam Inc, Cambridge Mass.) to reveal the muscular layer of the vessel wall. External diameter (ED) and internal diameter (ID) of 50 alveolar vessels (with ED of 40 to 100 μm) per animal were determined and recorded, by an independent investigator blinded to the sample's origin. The total wall thickness (WT) was measured as the mean distance between the internal and the external diameter. The percentage wall thickness (WT %) was calculated by the formula: WT %=2×WT/ED×100%. (38).

A further data set relates to mouse brain. Nature of the data set: MicroPET 18F-FDG uptake in the brain of hypoxic mice. It is filed as in vivo. The text has this: MicroPET scanning MicroPET scanning can be conducted using an appropriate system, such as Siemen's Inveon. The Inveon is a dedicated small animal positron emission tomography (PET) scanner housed in the Feinstein Institute for Medical Research. This scanner is an ultra-high resolution tomography that includes a built-in transmission source used for the quantitative assessment of radiotracer binding. The use of ^18FDG is preferred.
Scanning methods: All animals being scanned are housed in the Center for Comparative Physiology, within the Feinstein Institute. Animals receive an intraperitoneal (i.p.) injection of ^18FDG (between 1-2 mCi). […] Significant differences in absolute and region-of-interest to whole-brain relative metabolic glucose uptake are analyzed using student t-tests and repeated measures ANOVA.
Further developing these studies, it is herein disclosed that inhibition of MIF prevented altered 2-deoxy-2-(^18F)fluoro-D-glucose (^18F-FDG) uptake in the brain of hypoxic mice (FIG. 8). […] In this study, a standardized uptake value (SUV) (56) was used, a simple semi-quantitative index, calculated by measuring the activity concentration in a region of interest (ROI) during a short-duration (10 min) static scan acquired 60 min after injection and then normalized for the injected dose or weight of the animal. […]

Data set [1] has as its system primary lung fibroblasts (mif-/-). Nature of the data set: Proliferation of primary mif-/- lung fibroblasts in hypoxia with conditioned medium from hypoxic mif+/+ cells. Type of data set: cell-based, mouse. The settings on record: 1% oxygen; vs carrier DMSO. Here is the method:
Primary lung fibroblasts from MIF knockout (mif−/−) or their counterpart wild type C57BL6 mice (mif+/+) were established by using outgrowth from lung explants (36). Briefly, mouse lungs were removed using aseptic technique, carefully dissected free of connective tissue and fat, and cut into small pieces (<1 mm). These lung tissue pieces were cultured in a dish containing EMEM, 10% FBS, and 1% penicillin/streptomycin, at 37° C., 5% CO2 in air. Medium was changed twice a week. After about two weeks, fibroblasts had reached approximately 80% confluence. The fibroblasts were removed by trypsin and filtered using a sterilized 100-μm nylon cell strainer (Falcon) to remove any remaining tissue pieces. […]
Cell proliferation assessments: 5-bromo-2-deoxyuridine (BrdU) incorporation measured by a commercially available kit (Calbiochem, EMD Chemical Inc., Gibbstown, N.J.) was used to quantify the fibroblast proliferation, BrdU is incorporated into the newly synthesized DNA of replicating cells (during the S phase of the cell cycle). […] BrdU incorporated in newly synthesized DNA was detected with a BrdU antibody using chemiluminescence for quantification. […]
To further examine the role of MIF in hypoxia-induced fibroblast proliferation, the ability of primary lung fibroblasts (mif^−/− and mir^+/+) cultured under normoxic and hypoxic conditions for 24 hrs, was assessed. […]

In another data set the test system is CCL-210 cells. Nature of the data set: Lactate dehydrogenase release into the medium of treated cells (cytotoxicity). Type of data set: cell-based, human. The settings on record: at the concentration used (100 μM elsewhere in the source), data not shown.
In data set [2] the test system is Human lung fibroblasts (CCL-210). Nature of the data set: Hypoxia-induced proliferation of human lung fibroblasts (BrdU incorporation, cell counts). It is filed as cell-based. Here is the method: Cell culture studies: Human lung fibroblasts (CCL-210) were purchased from American Type Culture Collection (ATCC, Manassas, Va.). Cells were cultured in Eagle Minimum Essential Medium (EMEM) (ATCC, Manassas, Va.) with 10% fetal bovine serum (FBS) at 37′C, 5% CO2. The cells were subcultured using standard procedures and were used for experiment during passages 3 to 10.
Cell proliferation assessments: 5-bromo-2-deoxyuridine (BrdU) incorporation measured by a commercially available kit (Calbiochem, EMD Chemical Inc., Gibbstown, N.J.) was used to quantify the fibroblast proliferation, BrdU is incorporated into the newly synthesized DNA of replicating cells (during the S phase of the cell cycle). The assay was performed according to the manufacturer's instructions. […] BrdU incorporated in newly synthesized DNA was detected with a BrdU antibody using chemiluminescence for quantification. […]
Hypoxia in vitro: A modular incubator chamber (Billups-Rothenberg Inc., Del Mar, Calif.) was used for the cell hypoxia studies. To induce hypoxia, the chamber was tightly closed and flushed with a gas mixture consisting of 95% nitrogen and 5% CO2 until the desired ambient oxygen concentration of 1% was reached as measured using an oxygen sensor (BioSpherix, Lacona, N.Y.). […]
Cell proliferation, under both normoxic and hypoxic conditions, was then determined using the methods described above.
Background: Uptake of a labelled nucleoside into DNA is a usual measure of proliferation.

Another data set has as its system mice. Nature of the data set: Clock maze task (spatial working memory) in hypoxic mice. It is filed as in vivo, mouse. As to conditions: hypoxia, ISO-92 delivered to the dorsal hippocampus via osmotic pumps, n=4. Here is the method:
Clock maze: A navigational test is used to measure spatial working memory, modified from Deacon and Rawlins (2002). The apparatus (termed “clock maze”) is a circular base platform (diameter, 85 cm) surrounded by a clear wall (30 cm high), sealed to the base by aquarium sealant to make it waterproof. Cold water (20° C.±1° C.) is added to a depth of 2 cm, sufficient to wet the underside of the belly of mice. The perimeter wall is pierced by 12 holes, 4 cm in diameter, arranged equidistantly around the circumference so that they are 23 cm apart. The lower edge of each hole is 3 cm above the maze floor, that is, at mouse head level. Eleven of these tubes were sealed with black plugs, flush with the internal pool wall surface; one is open and led to an escape pipe, which is 4 cm in diameter, made of black flexible plastic. Thus, from within the clock maze, the true exit looks similar to the decoys, even to the human eye. […] The animal is placed facing one of the long sides in a semi-random fashion (not more than 3 consecutive times the same way) and the time taken to enter the open tube was recorded by software (Ethovision). […] The latency to reach the target is recorded by software (Ethovision) with a maximum of 60 sec for each trial. […]
The navigational test that measured spatial working memory was modified from Deacon and Rawlins (2002). […]

[3] abbreviates: 1.8 mg/kg/day s.c. osmotic pump, 10% oxygen, 10 or 21 days.

Entries after “also recorded” stand apart in the source; their conditions may differ.

Take `CC(C)(C)COC(=O)CC1CC(c2ccc(O)c(F)c2)=NO1` (stereo not drawn) [ISO-92]: in the data set with C57BL6 mice (setting [3]), the “right ventricle hypertrophy (RV/S+LV)” value is listed as “significantly reduced”; the “right ventricular systolic pressure (RVSP), effect in words” value is given as “significantly reduced”; the “vascular wall thickness (VascularWT %) / pulmonary vascular remodeling” value is recorded as “significantly reduced”. Moreover, the “right ventricular systolic pressure” value in the data set with C57BL6 mice (at 21 days hypoxia, normoxia 13.8±2.3, vehicle 20.2±1.4) was 16.8±1.5 mm Hg. In the data set with C57BL6 mice (at 21 days hypoxia, relative to vehicle and normoxia), the “reduction of right ventricular systolic pressures” value was “approximately 53%”. In the data set on mouse brain (10 days 10% hypoxia, ISO-92 via osmotic pump), the “hypoxia-induced increase in brain glucose metabolism (18FDG images)” value is on record as “blocked completely”. In addition, the “semi-quantitative 18F-FDG uptake (SUV) of specific brain regions, median value” in the data set with mouse brain (10 days hypoxia, differences not statistically significant) was “lower in each case”. In data set [1], the “increased proliferation of mif-/- fibroblasts induced by conditioned medium from hypoxic mif+/+ cells” value is “abrogated; also recorded: inhibitable; also recorded: inhibited”. Further, the “cytotoxicity / lactate dehydrogenase release into culture medium” value in the data set on CCL-210 cells is given as “not cytotoxic; also recorded: nor did it cause accumulation of lactate dehydrogenase”. In addition, the “growth of cells cultured in normoxic conditions” value in data set [2] (CCL-210, 100 μM ISO-92, normoxia) is given as “no effect”. Moreover, the hypoxia-induced cell proliferation result in data set [2] (CCL-210, 1% oxygen, 24 hrs, vs vehicle DMSO) is “inhibited by ISO-92 in a dose-dependent manner; also recorded: able to inhibit hypoxia-driven proliferation; also recorded: inhibited proliferation in a dose-dependent manner”. Further, the “performance in the clock maze task (working memory)” value in the data set on mice is reported as “completely normal performance”.

The values are drawn from patent publication US8741299B2, “Method for treating pathologies associated with hypoxia using MIF inhibitors” (The Feinstein Institute for Medical Research, priority 2011, dated 2014).
